Values quoted from earlier work in US5648396A, “Methods for treating depression and other disorders using optically pure R (-) fluoxetine and monoamine oxidase inhibitor” (Sepracor Inc., priority 1995, dated 1997).
Entries after “also recorded” stand apart in the source; their conditions may differ.

What was measured:
[1] = tested on: patients
[2] = tested on: patients; details: in vivo
[3] = tested on: dopamine turnover in striatum; details: in vivo
[4] = racemic mixture
[5] = tested on: histaminergic receptors; details: than tricyclic antidepressants; brain tissue
[6] = tested on: 5HIAA; details: acute effect; Wong et al. 1985
[7] = tested on: α1 adrenergic receptors; details: than tricyclic antidepressants; brain tissue
[8] = tested on: morning sickness during pregnancy; details: control of morning sickness during pregnancy; suggested
[9] = suggested
[10] = L-form versus D-enantiomer
[11] = tested on: 5HT1 receptor; details: relative to effect on 5HT uptake
[12] = tested on: writhing (morphine potentiation); details: Robertson et al 1988
[13] = tested on: D2 receptor; details: relative to effect on 5HT uptake
[14] = tested on: acetic acid writhing; details: Robertson et al 1988
[15] = tested on: PCPA effect on 5HT; details: for Duration of Inhibition of PCPA 5HT effect / Inhibition of PCPA effect on 5HT (full block): Fuller & Snoddy 1986; for Inhibition of PCPA effect on 5HT (ED50): Robertson et al 1988
[16] = tested on: 5HT1A receptor; details: relative to effect on 5HT uptake
[17] = tested on: α2 receptor; details: relative to effect on 5HT uptake
[18] = tested on: D1 receptor; details: relative to effect on 5HT uptake
[19] = tested on: HT2 receptor; details: relative to effect on 5HT uptake
[20] = tested on: Feeding; details: rel. potency R vs S, Wong et al 1988
[21] = tested on: β receptor; details: relative to effect on 5HT uptake
[22] = tested on: Saccharine palatability; details: Robertson et al 1988
[23] = tested on: uptake of norepinephrine; details: relative to effect on 5HT uptake
[24] = tested on: α1A receptor; details: relative to effect on 5HT uptake

Row | Compound | affinity for 5HT1 receptor [11] | Inhibition of writhing (morphine potentiation; ED50) [12] [mg/kg] | affinity for D2 receptor [13] | Inhibition of acetic acid writhing (ED50) [14] [mg/kg] | Duration of Inhibition of PCPA 5HT effect [15] | Inhibition of PCPA effect on 5HT (ED50) [15] [mg/kg] | Inhibition of PCPA effect on 5HT (full block) [15] | affinity for 5HT1A receptor [16] | affinity for α2 receptor [17] | affinity for D1 receptor [18] | affinity for HT2 receptor [19] | affinity for β receptor [21] | Inhibition of Saccharine palatability (ED50) [22] [mg/kg] | affinity for the uptake of norepinephrine [23] | affinity for α1A receptor [24] | other results
1 | CNCCC(Oc1ccc(C(F)(F)F)cc1)c1ccccc1 (racemic) [R,S-Fluoxetine] | – | – | – | – | – | – | – | – | – | – | – | – | – | – | – | drug discontinuation due to headaches, nervousness, anxiety and insomnia ([1]; of patients treated with the drug): 5%; adverse effects (in words) ([1]; patients): produces a state of inner restlessness (akathisia); also recorded: severe anxiety leading to intense violent suicidal thoughts and self mutilation; also recorded: manic behavior; also recorded: nausea, diarrhea, drowsiness, decrease in libido, and/or sexual dysfunction; anticholinergic and cardiovascular side effects ([1]; versus tricyclic antidepressants): less anticholinergic side effects such as blurred vision, dry mouth, constipation and urinary retention; also recorded: less lowering of blood pressure, tachycardia and arrhythmias; wait after discontinuing fluoxetine before starting treatment with an MAOI [2]: 5-6 weeks; dopamine turnover in striatum [3]: affects dopamine turnover in striatum; half-life and duration of action (in words) [4]: long half-life and long duration of action; binding to histaminergic receptors [5]: much less potently; levels of the intracellular serotonin metabolite 5HIAA [6]: rapid reduction; binding to α1 adrenergic receptors [7]: much less potently
2 | O=C1CC[C@@H](N2C(=O)c3ccccc3C2=O)C(=O)N1 [D-enantiomer of thalidomide] | – | – | – | – | – | – | – | – | – | – | – | – | – | – | – | sedative effect [8]: safe and effective sedative
3 | O=C1CC[C@H](N2C(=O)c3ccccc3C2=O)C(=O)N1 [L-enantiomer of thalidomide] | – | – | – | – | – | – | – | – | – | – | – | – | – | – | – | teratogenicity [9]: potent teratogen
4 | CC(C)NC[C@H](O)COc1cccc2ccccc12 [L-form of propranolol] | – | – | – | – | – | – | – | – | – | – | – | – | – | – | – | potency relative to the D-enantiomer [10]: 100 times
5 | CNCC[C@@H](Oc1ccc(C(F)(F)F)cc1)c1ccccc1 [R-Fluoxetine, (-)N-methyl-3-phenyl-3-[(α,α,α-trifluoro-p-tolyl)-oxy]-propylamine] | relatively little affinity | 3.6 | relatively little affinity | 15.3 | ~ 8 hr | 2.1 | ~ 10 mg/kg | relatively little affinity | relatively little affinity | relatively little affinity | relatively little affinity | relatively little affinity | 6.1 | relatively little affinity | relatively little affinity | Inhibition of Feeding (meal fed, 2DG) (rel. potency) [20]: R < S
6 | CNCC[C@H](Oc1ccc(C(F)(F)F)cc1)c1ccccc1 [S-Fluoxetine] | relatively little affinity | 5.7 | relatively little affinity | 25.7 | > 24 h | 1.2 | ~ 5 mg/kg | relatively little affinity | relatively little affinity | relatively little affinity | relatively little affinity | relatively little affinity | 4.9 | relatively little affinity | relatively little affinity | –
